Measurements: ChEMBL document CHEMBL1131990, “The design of potent, selective, non-covalent, peptide thrombin inhibitors utilizing imidazole as a S1 binding element” (Bioorg Med Chem Lett, 1999)

Tests used:
[1] = biological target: Prothrombin (Homo sapiens) (UniProt P00734); assay: Inhibitory activity against the human alpha-thrombin
[2] = biological target: Vitamin K-dependent protein C (Homo sapiens) (UniProt P04070); assay: Inhibitory activity against the activated human protein C
[3] = biological target: Plasminogen (Homo sapiens) (UniProt P00747); assay: Inhibitory activity against the human plasmin
[4] = biological target: Urokinase-type plasminogen activator (Homo sapiens) (UniProt P00749); assay: Inhibitory activity against the human urokinase
[5] = Anticoagulant activity for the compound by determining the concentration required to double the prothrombin time.; type: functional
[6] = Anticoagulant activity for the compound by determining the concentration required to double the activated partial thromboplastin time.; type: functional
[7] = Anticoagulant activity for the compound by determining the concentration required to double the thrombin time.; type: functional
[8] = biological target: Serine protease 1 (Homo sapiens) (UniProt P07477); assay: Inhibitory activity against the human trypsin
[9] = biological target: Tissue-type plasminogen activator (Homo sapiens) (UniProt P00750); assay: Inhibitory activity against the human tissue plasminogen activator
[10] = biological target: Vitamin K-dependent protein C (Homo sapiens) (UniProt P04070); assay: Inhibitory activity against the human activated protein C

Chain of Serine protease 1 (Homo sapiens) (P07477 whole entry): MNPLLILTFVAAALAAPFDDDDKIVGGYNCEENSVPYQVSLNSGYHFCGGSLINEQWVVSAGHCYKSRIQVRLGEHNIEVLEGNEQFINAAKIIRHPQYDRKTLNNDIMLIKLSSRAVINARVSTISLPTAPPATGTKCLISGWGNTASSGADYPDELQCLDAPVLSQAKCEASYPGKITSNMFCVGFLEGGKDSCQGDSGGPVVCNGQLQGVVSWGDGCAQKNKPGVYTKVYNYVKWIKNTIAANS
Chain of Vitamin K-dependent protein C (Homo sapiens) (P04070 43-197 limits assumed): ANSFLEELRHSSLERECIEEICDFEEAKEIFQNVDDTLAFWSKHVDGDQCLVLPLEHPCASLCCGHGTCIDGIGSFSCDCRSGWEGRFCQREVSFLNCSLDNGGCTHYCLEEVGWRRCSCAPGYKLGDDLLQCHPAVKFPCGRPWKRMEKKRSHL
Chain of Vitamin K-dependent protein C (Homo sapiens) (P04070 212-461 limits assumed): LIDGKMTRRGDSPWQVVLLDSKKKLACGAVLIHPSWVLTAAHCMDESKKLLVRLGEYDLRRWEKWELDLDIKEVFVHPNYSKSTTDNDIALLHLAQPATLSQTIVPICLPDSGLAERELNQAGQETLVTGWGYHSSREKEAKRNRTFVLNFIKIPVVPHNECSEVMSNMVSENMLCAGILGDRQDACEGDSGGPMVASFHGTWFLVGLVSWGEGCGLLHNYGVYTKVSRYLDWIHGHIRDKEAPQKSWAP
Chain of Tissue-type plasminogen activator (Homo sapiens) (P00750 36-562 limits assumed): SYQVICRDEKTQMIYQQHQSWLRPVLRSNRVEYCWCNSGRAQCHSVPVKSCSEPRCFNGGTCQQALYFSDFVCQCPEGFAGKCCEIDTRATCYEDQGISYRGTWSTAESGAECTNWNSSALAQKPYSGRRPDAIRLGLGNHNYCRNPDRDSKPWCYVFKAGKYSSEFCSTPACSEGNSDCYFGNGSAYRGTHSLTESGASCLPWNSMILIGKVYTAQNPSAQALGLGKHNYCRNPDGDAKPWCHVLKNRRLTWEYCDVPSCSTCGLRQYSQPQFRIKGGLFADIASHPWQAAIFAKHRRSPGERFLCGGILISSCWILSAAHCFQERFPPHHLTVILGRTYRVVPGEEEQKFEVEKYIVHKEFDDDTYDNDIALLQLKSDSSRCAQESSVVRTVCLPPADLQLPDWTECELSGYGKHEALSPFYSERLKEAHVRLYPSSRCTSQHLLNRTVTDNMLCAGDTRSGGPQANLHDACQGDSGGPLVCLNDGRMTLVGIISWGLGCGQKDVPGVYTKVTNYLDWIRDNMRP
Chain of Plasminogen (Homo sapiens) (P00747 97-580 limits assumed): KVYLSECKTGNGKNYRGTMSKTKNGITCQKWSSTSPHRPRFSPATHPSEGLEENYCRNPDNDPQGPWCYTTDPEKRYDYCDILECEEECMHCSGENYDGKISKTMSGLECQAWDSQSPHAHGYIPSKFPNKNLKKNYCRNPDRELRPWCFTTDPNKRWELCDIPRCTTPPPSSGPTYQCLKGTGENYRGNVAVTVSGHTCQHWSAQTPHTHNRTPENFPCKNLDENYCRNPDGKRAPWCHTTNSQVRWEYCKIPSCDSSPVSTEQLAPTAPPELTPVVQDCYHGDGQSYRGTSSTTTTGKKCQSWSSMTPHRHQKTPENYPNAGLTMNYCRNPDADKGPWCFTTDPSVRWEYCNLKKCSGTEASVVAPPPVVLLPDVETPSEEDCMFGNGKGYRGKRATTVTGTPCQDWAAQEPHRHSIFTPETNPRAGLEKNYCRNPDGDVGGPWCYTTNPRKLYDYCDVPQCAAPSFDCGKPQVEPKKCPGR
Chain of Plasminogen (Homo sapiens) (P00747 581-810 limits assumed): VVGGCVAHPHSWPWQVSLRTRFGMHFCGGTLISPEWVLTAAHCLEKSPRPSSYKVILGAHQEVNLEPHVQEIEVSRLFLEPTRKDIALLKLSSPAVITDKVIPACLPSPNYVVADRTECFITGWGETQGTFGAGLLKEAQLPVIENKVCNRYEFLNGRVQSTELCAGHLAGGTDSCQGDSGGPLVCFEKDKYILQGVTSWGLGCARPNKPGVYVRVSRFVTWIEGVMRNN

| Structure (SMILES) | K ass [1] | K ass [2] | K ass [3] | K ass [4] | K ass [8] | K ass [9] | K ass [10] | Concentration [5] | Concentration [6] | Concentration [7] |
| --- | --- | --- | --- | --- | --- | --- | --- | --- | --- | --- |
| N[C@H](CC1CCCCC1)C(=O)N1CCC[C@H]1C(=O)NCCc1c[nH]cn1 | 4.4e+06 l M-1 | – | – | – | – | – | – | – | – | – |
| O=C(O)CN[C@H](CC1CCCCC1)C(=O)N1CCC[C@H]1C(=O)NC/C=C/c1c[nH]cn1 | 8.4e+07 l M-1 | – | – | – | – | – | – | – | – | – |
| N[C@H](CC1CCCCC1)C(=O)N1[C@H](C(=O)NC/C=C/c2c[nH]cn2)C[C@@H]2CCCC[C@@H]21 | 7e+06 l M-1 | – | – | – | – | – | – | – | – | – |
| N[C@H](CC1CCCCC1)C(=O)N1CCC[C@H]1C(=O)NCCCc1c[nH]cn1 | 2e+07 l M-1 | – | < 10000 l M-1 | < 10000 l M-1 | 10000 l M-1 | < 10000 l M-1 | < 10000 l M-1 | 1000 ng/mL | 660 ng/mL | 74 ng/mL |
| NC(N)=NCCCCNC(=O)[C@@H]1CCCN1C(=O)[C@H](N)CC1CCCCC1 | 3e+07 l M-1 | 10000 l M-1 | 10000 l M-1 | < 10000 l M-1 | 260000 M⁻¹ | 11000 l M-1 | – | 770 ng/mL | 490 ng/mL | 44 ng/mL |
| Cc1[nH]cnc1CCCNC(=O)[C@@H]1CCCN1C(=O)[C@H](N)CC1CCCCC1 | 2.3e+07 l M-1 | – | – | – | – | – | – | – | – | – |

Further lines, with some results ahead:

| K ass [1] | K ass [2] | K ass [3] | K ass [4] | K ass [8] | K ass [9] | K ass [10] | Structure (SMILES) | Concentration [5] | Concentration [6] | Concentration [7] |
| --- | --- | --- | --- | --- | --- | --- | --- | --- | --- | --- |
| 1.6e+07 l M-1 | – | – | – | – | – | – | N[C@H](CC1CCCCC1)C(=O)N1CCC[C@H]1C(=O)NC/C=C/c1c[nH]cn1 | – | – | – |
| 6.7e+08 l M-1 | 300000 l M-1 | 1.5e+06 l M-1 | 40000 l M-1 | 91 l M-1 | – | – | CN[C@H](Cc1ccccc1)C(=O)N1CCC[C@H]1C(=O)N[C@H](C=O)CCCNC(=N)N | 1000 ng/mL | 930 ng/mL | 41 ng/mL |
| 1.3e+06 l M-1 | – | – | – | – | – | – | N[C@H](CC1CCCCC1)C(=O)N1CCC[C@H]1C(=O)NCCCCc1c[nH]cn1 | – | – | – |
| 3.4e+07 l M-1 | – | < 10000 l M-1 | < 10000 l M-1 | 40000 l M-1 | < 10000 l M-1 | 10000 l M-1 | N[C@H](CC1CCCCC1)C(=O)N1[C@H](C(=O)NCCCc2c[nH]cn2)C[C@@H]2CCCC[C@@H]21 | 700 ng/mL | 470 ng/mL | 61 ng/mL |
| 1e+08 l M-1 | – | < 10000 l M-1 | < 10000 l M-1 | 290000 l M-1 | < 10000 l M-1 | 20000 l M-1 | O=C(O)CN[C@H](CC1CCCCC1)C(=O)N1CCC[C@H]1C(=O)NCCCc1c[nH]cn1 | 380 ng/mL | 170 ng/mL | 20 ng/mL |
